{
  "source": "ChEMBL document CHEMBL5154876",
  "about": "“Design, synthesis and promising anti-tumor efficacy of novel imidazo[1,2-a]pyridine derivatives as potent autotaxin allosteric inhibitors” (Eur J Med Chem, 2022)",
  "key": {"Autotaxin": {"biological_target": "Autotaxin (Homo sapiens, UniProt Q13822)", "assay": "Negative allosteric modulation activity against human ATX using FS-3 as substrate preincubated for 45 mins followed by substrate addition and measured every 30 mins by multi-mode microplate reader"}, "MCF7": {"test_system": "MCF7", "assay": "Cytotoxicity against human MCF-7 cells assessed as inhibition of cell growth incubated for 72 hrs by MTT assay", "format": "functional, cell-based", "details": "MCF7, 72 h"}, "MDA-MB-231": {"test_system": "MDA-MB-231", "assay": "Cytotoxicity against human MDA-MB-231 cells assessed as inhibition of cell growth incubated for 72 hrs by MTT assay", "format": "functional, cell-based", "details": "MDA-MB-231, 72 h"}, "A549": {"test_system": "A549", "assay": "Cytotoxicity against human A549 cells assessed as inhibition of cell growth incubated for 72 hrs by MTT assay", "format": "functional, cell-based", "details": "A549, 72 h"}, "NCI-H1581": {"test_system": "NCI-H1581", "assay": "Cytotoxicity against human NCI-H1581 cells assessed as inhibition of cell growth incubated for 72 hrs by MTT assay", "format": "functional, cell-based", "details": "NCI-H1581, 72 h"}, "NCI-H2228": {"test_system": "NCI-H2228", "assay": "Cytotoxicity against human H2228 cells assessed as inhibition of cell growth incubated for 72 hrs by MTT assay", "format": "functional, cell-based", "details": "NCI-H2228, 72 h"}, "Hep 3B2": {"test_system": "Hep 3B2", "assay": "Cytotoxicity against human Hep3B cells assessed as inhibition of cell growth incubated for 72 hrs by MTT assay", "format": "functional, cell-based"}, "RAW264.7 [1]": {"test_system": "RAW264.7", "assay": "Inhibition of colony formation in mouse RAW264.7 cells incubated for 72 hrs by crystal violet staining method", "format": "functional, cell-based", "details": "dose 0.1-1 µM, DDE = dose-dependent effect"}, "RAW264.7 [2]": {"test_system": "RAW264.7", "assay": "Inhibition of colony formation in mouse RAW264.7 cells assessed as reduction in colony count at 0.1 to 1 uM incubated for 72 hrs by crystal violet staining method", "format": "functional, cell-based", "details": "dose 0.1-1 µM"}, "RAW264.7 [3]": {"test_system": "RAW264.7", "assay": "Inhibition of colony formation in mouse RAW264.7 cells assessed as reduction in colony single area at 0.1 to 1 uM incubated for 72 hrs by crystal violet staining method", "format": "functional, cell-based", "details": "dose 0.1-1 µM"}, "RAW264.7 [4]": {"test_system": "RAW264.7", "assay": "Induction of apoptosis in mouse RAW264.7 cells assessed as apoptotic cells measured after 48 hrs by acridine orange/ethidium bromide staining based fluorescence microscopy", "format": "functional, cell-based", "details": "dose 0.1-1 µM, DDE = dose-dependent effect"}, "RAW264.7 [5]": {"test_system": "RAW264.7", "assay": "Induction of apoptosis in mouse RAW264.7 cells assessed as apoptotic cells by measuring blue fluorescence after 48 hrs by Hoechst33342 staining based fluorescence microscopy", "format": "functional, cell-based", "details": "dose 0.1-1 µM, DDE = dose-dependent effect"}, "RAW264.7 [6]": {"test_system": "RAW264.7", "assay": "Induction of apoptosis in mouse RAW264.7 cells assessed as early apoptotic cells at 0.1 uM after 48 hrs by Annexin V-FITC/PI based flow cytometric analysis (RVB=5.57%)", "format": "functional"}, "RAW264.7 [7]": {"test_system": "RAW264.7", "assay": "Induction of apoptosis in mouse RAW264.7 cells assessed as necrotic cells at 0.1 uM after 48 hrs by Annexin V-FITC/PI based flow cytometric analysis (RVB=0.26%)", "format": "functional"}, "RAW264.7 [8]": {"test_system": "RAW264.7", "assay": "Induction of apoptosis in mouse RAW264.7 cells assessed as late apoptotic cells at 0.25 uM after 48 hrs by Annexin V-FITC/PI based flow cytometric analysis (RVB=0.098%)", "format": "functional"}, "RAW264.7 [9]": {"test_system": "RAW264.7", "assay": "Induction of apoptosis in mouse RAW264.7 cells assessed as necrotic cells at 0.25 uM after 48 hrs by Annexin V-FITC/PI based flow cytometric analysis (RVB=0.26%)", "format": "functional"}, "RAW264.7 [10]": {"test_system": "RAW264.7", "assay": "Induction of apoptosis in mouse RAW264.7 cells assessed as viable cells at 0.5 uM after 48 hrs by Annexin V-FITC/PI based flow cytometric analysis (RVB=94.1%)", "format": "functional", "details": "read-out: Activity"}, "RAW264.7 [11]": {"test_system": "RAW264.7", "assay": "Induction of apoptosis in mouse RAW264.7 cells assessed as early apoptotic cells at 0.5 uM after 48 hrs by Annexin V-FITC/PI based flow cytometric analysis (RVB=5.57%)", "format": "functional"}, "RAW264.7 [12]": {"test_system": "RAW264.7", "assay": "Induction of apoptosis in mouse RAW264.7 cells assessed as late apoptotic cells at 0.5 uM after 48 hrs by Annexin V-FITC/PI based flow cytometric analysis (RVB=0.098%)", "format": "functional"}, "RAW264.7 [13]": {"test_system": "RAW264.7", "assay": "Induction of apoptosis in mouse RAW264.7 cells assessed as necrotic cells at 0.5 uM after 48 hrs by Annexin V-FITC/PI based flow cytometric analysis (RVB=0.26%)", "format": "functional"}, "RAW264.7 [14]": {"test_system": "RAW264.7", "assay": "Induction of apoptosis in mouse RAW264.7 cells assessed as viable cells at 1 uM after 48 hrs by Annexin V-FITC/PI based flow cytometric analysis (RVB=94.1%)", "format": "functional", "details": "read-out: Activity"}, "RAW264.7 [15]": {"test_system": "RAW264.7", "assay": "Induction of apoptosis in mouse RAW264.7 cells assessed as early apoptotic cells at 1 uM after 48 hrs by Annexin V-FITC/PI based flow cytometric analysis (RVB=5.57%)", "format": "functional"}, "RAW264.7 [16]": {"test_system": "RAW264.7", "assay": "Induction of apoptosis in mouse RAW264.7 cells assessed as late apoptotic cells at 1 uM after 48 hrs by Annexin V-FITC/PI based flow cytometric analysis (RVB=0.098%)", "format": "functional"}, "RAW264.7 [17]": {"test_system": "RAW264.7", "assay": "Induction of apoptosis in mouse RAW264.7 cells assessed as necrotic cells at 1 uM after 48 hrs by Annexin V-FITC/PI based flow cytometric analysis (RVB=0.26%)", "format": "functional"}, "RAW264.7 [18]": {"test_system": "RAW264.7", "assay": "Induction of cell cycle arrest in mouse RAW264.7 cells assessed as accumulation of cells in S phase at 0.1 uM incubated for 24 hrs by PI/RNase staining based flow cytometric analysis (RVB = 34.03%)", "format": "functional"}, "RAW264.7 [19]": {"test_system": "RAW264.7", "assay": "Induction of cell cycle arrest in mouse RAW264.7 cells assessed as accumulation of cells in G2 phase at 0.1 uM incubated for 24 hrs by PI/RNase staining based flow cytometric analysis (RVB = 10.90%)", "format": "functional"}, "RAW264.7 [20]": {"test_system": "RAW264.7", "assay": "Induction of cell cycle arrest in mouse RAW264.7 cells assessed as accumulation of cells in S phase at 0.25 uM incubated for 24 hrs by PI/RNase staining based flow cytometric analysis (RVB = 34.03%)", "format": "functional"}, "RAW264.7 [21]": {"test_system": "RAW264.7", "assay": "Induction of cell cycle arrest in mouse RAW264.7 cells assessed as accumulation of cells in G2 phase at 0.25 uM incubated for 24 hrs by PI/RNase staining based flow cytometric analysis (RVB = 10.90%)", "format": "functional"}, "RAW264.7 [22]": {"test_system": "RAW264.7", "assay": "Induction of cell cycle arrest in mouse RAW264.7 cells assessed as accumulation of cells in G1 phase at 0.5 uM incubated for 24 hrs by PI/RNase staining based flow cytometric analysis (RVB = 55.06%)", "format": "functional"}, "RAW264.7 [23]": {"test_system": "RAW264.7", "assay": "Induction of cell cycle arrest in mouse RAW264.7 cells assessed as accumulation of cells in G2 phase at 0.5 uM incubated for 24 hrs by PI/RNase staining based flow cytometric analysis (RVB = 10.90%)", "format": "functional"}, "RAW264.7 [24]": {"test_system": "RAW264.7", "assay": "Induction of cell cycle arrest in mouse RAW264.7 cells assessed as accumulation of cells in G1 phase at 1 uM incubated for 24 hrs by PI/RNase staining based flow cytometric analysis (RVB = 55.06%)", "format": "functional"}, "RAW264.7 [25]": {"test_system": "RAW264.7", "assay": "Induction of cell cycle arrest in mouse RAW264.7 cells assessed as accumulation of cells in S phase at 1 uM incubated for 24 hrs by PI/RNase staining based flow cytometric analysis (RVB = 34.03%)", "format": "functional"}, "[26]": {"assay": "Acute toxicity in C57BL/6J mouse assessed as mortality at 1000 to 5000 mg/kg measured after 14 days", "format": "organism-based", "details": "in vivo, 336 h, dose 1000-5000 mg/kg, time 14 day"}, "[27]": {"assay": "Acute toxicity in C57BL/6J mouse assessed as secretion in eye corner at 5000 mg/kg measured after 14 days", "format": "organism-based", "details": "in vivo, 336 h, time 14 day"}},
  "note": "The source made the active and inactive calls. The rule behind the calls is not given here.",
  "data": [
    {"compound": "CCc1nc2c(C)cc(-c3ccc(CN4CCN(CCO)CC4)cc3)cn2c1NC(=O)OCc1cc(Cl)cc(Cl)c1", "values": [
      {"measurement": "IC50", "setting": "Autotaxin", "result": 0.0034, "unit": "µM"},
      {"measurement": "IC50", "setting": "MCF7", "result": 3.87, "unit": "µM"},
      {"measurement": "IC50", "setting": "MDA-MB-231", "result": 3.29, "unit": "µM"},
      {"measurement": "IC50", "setting": "A549", "result": 6.59, "unit": "µM"},
      {"measurement": "IC50", "setting": "NCI-H1581", "result": 4.76, "unit": "µM"},
      {"measurement": "IC50", "setting": "NCI-H2228", "result": 4.27, "unit": "µM"},
      {"measurement": "IC50", "setting": "Hep 3B2", "result": 0.58, "unit": "µM"},
      {"measurement": "inhibition", "setting": "RAW264.7 [1]", "result": "Dde"},
      {"measurement": "inhibition", "setting": "RAW264.7 [2]", "result": "Active"},
      {"measurement": "inhibition", "setting": "RAW264.7 [3]", "result": "Active"},
      {"measurement": "Activity", "setting": "RAW264.7 [4]", "result": "Dde"},
      {"measurement": "Activity", "setting": "RAW264.7 [5]", "result": "Dde"},
      {"measurement": "Activity", "setting": "RAW264.7 [6]", "result": 6.04, "unit": "%"},
      {"measurement": "Activity", "setting": "RAW264.7 [7]", "result": 0.68, "unit": "%"},
      {"measurement": "Activity", "setting": "RAW264.7 [8]", "result": 1.73, "unit": "%"},
      {"measurement": "Activity", "setting": "RAW264.7 [9]", "result": 0.28, "unit": "%"},
      {"measurement": "viability at 0.5 µM", "setting": "RAW264.7 [10]", "result": 90.4, "unit": "%"},
      {"measurement": "Activity", "setting": "RAW264.7 [11]", "result": 7.65, "unit": "%"},
      {"measurement": "Activity", "setting": "RAW264.7 [12]", "result": 0.95, "unit": "%"},
      {"measurement": "Activity", "setting": "RAW264.7 [13]", "result": 1.03, "unit": "%"},
      {"measurement": "viability at 1 µM", "setting": "RAW264.7 [14]", "result": 90, "unit": "%"},
      {"measurement": "Activity", "setting": "RAW264.7 [15]", "result": 8.43, "unit": "%"},
      {"measurement": "Activity", "setting": "RAW264.7 [16]", "result": 0.74, "unit": "%"},
      {"measurement": "Activity", "setting": "RAW264.7 [17]", "result": 0.83, "unit": "%"},
      {"measurement": "Activity", "setting": "RAW264.7 [18]", "result": 25.72, "unit": "%"},
      {"measurement": "Activity", "setting": "RAW264.7 [19]", "result": 59.56, "unit": "%"},
      {"measurement": "Activity", "setting": "RAW264.7 [20]", "result": 18.57, "unit": "%"},
      {"measurement": "Activity", "setting": "RAW264.7 [21]", "result": 70.82, "unit": "%"},
      {"measurement": "Activity", "setting": "RAW264.7 [22]", "result": 21.13, "unit": "%"},
      {"measurement": "Activity", "setting": "RAW264.7 [23]", "result": 74.09, "unit": "%"},
      {"measurement": "Activity", "setting": "RAW264.7 [24]", "result": 7.22, "unit": "%"},
      {"measurement": "Activity", "setting": "RAW264.7 [25]", "result": 2.63, "unit": "%"},
      {"measurement": "Activity", "setting": "[26]", "result": "Non-Toxic"},
      {"measurement": "Activity", "setting": "[27]", "result": "Toxic"}
    ]}
  ]
}
